Test results from patent US12435061B2 (priority 2020, dated 2025).
Like-named read-outs stand apart in the source and are kept apart here.

Molecular target: hTRPV3 (Homo sapiens (Human), UniProt Q8NET8)
Experiment: Whole-cell patch clamp, hTRPV3 Phase 1 / Phase 2 currents
Format: cell-based
Conditions: Phase 1 current
Outline: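 Currents are activated by 20 μM 2-APB or by perfusate at 28 °C or warmer, in Ringer's solution, and quantified at ±80 mV.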

[1] = human TRPV3, read-out: hTRPV3 (nM) Phase 1
[2] = inward, whole-cell patch clamp, read-out: hTRPV3 Patch P1 Inwd

Sequence of hTRPV3 (Q8NET8 whole entry): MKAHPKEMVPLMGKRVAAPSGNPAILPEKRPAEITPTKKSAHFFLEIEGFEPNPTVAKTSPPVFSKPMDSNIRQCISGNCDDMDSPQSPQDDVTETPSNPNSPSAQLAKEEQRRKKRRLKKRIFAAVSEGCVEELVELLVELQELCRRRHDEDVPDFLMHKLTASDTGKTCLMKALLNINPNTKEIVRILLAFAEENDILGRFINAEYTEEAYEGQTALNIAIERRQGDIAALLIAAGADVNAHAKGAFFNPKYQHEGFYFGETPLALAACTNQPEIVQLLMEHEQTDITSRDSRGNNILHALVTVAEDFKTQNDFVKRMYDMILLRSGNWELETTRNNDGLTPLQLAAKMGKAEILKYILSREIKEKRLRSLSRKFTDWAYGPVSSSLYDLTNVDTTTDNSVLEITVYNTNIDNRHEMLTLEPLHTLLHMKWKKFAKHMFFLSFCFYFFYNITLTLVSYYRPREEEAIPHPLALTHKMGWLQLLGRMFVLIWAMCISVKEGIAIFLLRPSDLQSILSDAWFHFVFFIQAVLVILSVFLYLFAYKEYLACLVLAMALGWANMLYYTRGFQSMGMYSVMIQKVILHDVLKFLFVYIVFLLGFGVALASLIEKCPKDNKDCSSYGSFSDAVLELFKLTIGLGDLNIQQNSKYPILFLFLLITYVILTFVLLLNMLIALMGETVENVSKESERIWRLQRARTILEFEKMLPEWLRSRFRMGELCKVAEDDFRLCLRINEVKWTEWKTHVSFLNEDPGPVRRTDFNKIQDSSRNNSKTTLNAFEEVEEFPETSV

## CC(C)c1ccccc1Oc1ccc(C2CCN(C(=O)c3ncccc3Cl)C2)c(C(=O)O)c1 (stereo not drawn) [Compound 2-25, 2-(1-(3-chloropicolinoyl)pyrrolidin-3-yl)-5-(2-isopropylphenoxy)benzoic acid]
[1]
  IC50: > 3200 nM
[2]
  IC50: > 1000 nM

## CC(C)c1ccccc1Oc1ccc(C2CCN(C(=O)c3ccccn3)C2)c(C(N)=O)c1 (stereo not drawn) [Compound 2-31, 5-(2-isopropylphenoxy)-2-(1-picolinoylpyrrolidin-3-yl)benzamide]
[1]
  IC50: 1370 nM
[2]
  IC50: > 1000 nM

## CCc1ccccc1Oc1ccc(C2CCN(C(=O)c3ncccc3Cl)C2)c(C(N)=O)c1 (stereo not drawn) [Compound 2-37, 2-(1-(3-chloropicolinoyl)pyrrolidin-3-yl)-5-(2-ethylphenoxy)benzamide]
[1]
  IC50: ~2190 nM
[2]
  IC50: > 1000 nM

## CCc1ccccc1Oc1ccc(C2CCN(C(=O)c3ccccn3)C2)c(C(N)=O)c1 (stereo not drawn) [Compound 2-38, 5-(2-ethylphenoxy)-2-(1-picolinoylpyrrolidin-3-yl)benzamide]
[1]
  IC50: 2820 nM
[2]
  IC50: > 1000 nM

## CCc1ccccc1Oc1ccc(C2CCN(C(=O)c3ccc(Cl)cn3)C2)c(C(N)=O)c1 (stereo not drawn) [Compound 2-39, 2-(1-(5-chloropicolinoyl)pyrrolidin-3-yl)-5-(2-ethylphenoxy)benzamide]
[1]
  IC50: 681 nM
[2]
  IC50: 100 to 1000 nM

## CCc1ccccc1Oc1ccc(C2CCN(C(=O)c3cccc(C)n3)C2)c(C(N)=O)c1 (stereo not drawn) [Compound 2-40, 5-(2-ethylphenoxy)-2-(1-(6-methylpicolinoyl)pyrrolidin-3-yl)benzamide]
[1]
  IC50: 4900 nM
[2]
  IC50: > 1000 nM

## CC(C)c1ccccc1-c1ccc(C2CCN(C(=O)c3ncccc3Cl)C2)c(C(N)=O)c1 (stereo not drawn) [Compound 2-41]
[1]
  IC50: 575 nM
[2]
  IC50: 100 to 1000 nM

## CCc1cccnc1Oc1ccc(C2CCN(C(=O)c3ccc(F)cn3)C2)c(CO)c1 (stereo not drawn) [Compound 2-44, (3-(4-(3-ethylpyridin-2-yloxy)-2-(hydroxymethyl)phenyl)pyrrolidin-1-yl)(5-fluoropyridin-2-yl)methanone]
[1]
  IC50: > 3200 nM
[2]
  IC50: > 1000 nM

## CC(C)c1ccccc1-c1ccc(C2CCN(C(=O)c3ccccn3)C2)c(C(N)=O)c1 (stereo not drawn) [Compound 2-45]
[1]
  IC50: 929 nM
[2]
  IC50: 100 to 1000 nM

## CC(C)c1ccccc1Oc1ccc(C2CCN(C(=O)c3ncccc3F)C2)c(C(N)=O)c1 (stereo not drawn) [Compound 2-46, 2-(1-(3-fluoropicolinoyl)pyrrolidin-3-yl)-5-(2-isopropylphenoxy)benzamide]
[1]
  IC50: ~2250 nM
[2]
  IC50: > 1000 nM

## CCc1ccccc1-c1ccc(C2CCN(C(=O)c3ncccc3F)C2)c(CO)c1 (stereo not drawn) [Compound 2-54, (3-(2′-ethyl-3-(hydroxymethyl)biphenyl-4-yl)pyrrolidin-1-yl)(3-fluoropyridin-2-yl) methanone]
[1]
  IC50: 91.3 nM
[2]
  IC50: 10 to 100 nM

## O=C(c1ncccc1Cl)N1CCC(c2ccc(-c3ccccc3C3CC3)cc2CO)C1 (stereo not drawn) [Compound 2-55, (3-chloropyridin-2-yl)(3-(2′-cyclopropyl-3-(hydroxymethyl)biphenyl-4-yl)pyrrolidin-1-yl)methanone]
[1]
  IC50: 88.4 nM
[2]
  IC50: 10 to 100 nM

## CCOc1ccccc1-c1ccc(C2CCN(C(=O)c3ccc(F)cn3)C2)c(CO)c1 (stereo not drawn) [Compound 2-59, (3-(2′-ethoxy-3-(hydroxymethyl)biphenyl-4-yl)pyrrolidin-1-yl)(5-fluoropyridin-2-yl)methanone]
[1]
  IC50: 62.1 nM
[2]
  IC50: 10 to 100 nM

## O=C(c1cc(Cl)ccn1)N1CCC(c2ccc(-c3ccccc3C3CC3)cc2CO)C1 (stereo not drawn) [Compound 2-60, (4-chloropyridin-2-yl)(3-(2′-cyclopropyl-3-(hydroxymethyl)biphenyl-4-yl)pyrrolidin-1-yl)methanone]
[1]
  IC50: 26.5 nM
[2]
  IC50: 10 to 100 nM

## COCc1ccccc1-c1ccc(C2CCN(C(=O)c3ccc(F)cn3)C2)c(CO)c1 (stereo not drawn) [Compound 2-61, (5-fluoropyridin-2-yl)(3-(3-(hydroxymethyl)-2′-(methoxymethyl)biphenyl-4-yl)pyrrolidin-1-yl)methanone]
[1]
  IC50: 153 nM
[2]
  IC50: 100 to 1000 nM
